Measurements published in patent US9012435B2, “Glucocorticoids attached to nitrate esters via an aromatic linker in position 21 and their use in ophthalmology” (Nicox S.A., priority 2008, dated 2015).

How the values were obtained:
ophthalmic artery = experiment: Ocular haemodynamics (Color Doppler Imaging, Pourcelot Resistance Index) in ET-1 induced ischemia; format: in vivo, rabbit
Method: Haemodynamic evaluations were performed using an eco-color-doppler DynaView TM II SSD-1700 (Aloka Holding Europe AG, Milan, Italy). All animals underwent Color Doppler Imaging (CDI) investigation before ET-1 injection (T0), before the start of drug instillation (T2) and at the end of the drug treatment (T6). Special attention was devoted to the evaluation of ophthalmic and ciliary artery circulation. Blood flow velocities were measured for each vessel and the Pourcelot Resistance Index (RI) was calculated (Galassi F. et al., Acta Opht. Scand Suppl. (2000) 37-38).

[1] = tested on: VEGF-induced leakage rat model; experiment: VEGF-induced retinal vascular leakage rat model (Evans blue); format: in vivo; conditions: 25 μg/eye intravitreal, VEGF 100 ng/eye, 18 hours after injection
Method: Pupils were dilated with 1% topical cyclopentolate hydrochloride to see the needle to guide the intravitreal injection. Recombinant rat vascular endothelial growth factor (VEGF; 100 ng/eye) or VEGF at 100 ng/eye plus test compounds were prepared in 0.5% carboxymethyl cellulose (CMC) in sterile saline and was injected into the vitreous with a 30-gauge needle (Xu, Q., et al. Invest. Ophthalmol. Vis. Sci., 42:789-794, 2001). The compounds of the invention were compared to corresponding steroid cores at equimolar doses. […] Control animals received vehicle. Compound (18) was similarly dosed alongside triamcinolone acetonide for comparison.
Retinal vascular leakage was measured as described previously (Xu, Q., et al. Invest. Ophthalmol. Vis. Sci., 42:789-794, 2001). After about 18 hours post injection of test compounds, rats were anesthetized with ketamine (80 mg/kg) and xylazine (4 mg/kg) IP. Then 45 mg/kg Evans blue (EB) was injected into the jugular vein. The dye was allowed to circulate for 2 hours. The chest cavity was opened and rats then perfused with 1% formalin in 0.5 M citrate buffer (pH 3.5, 37° C.) through the left ventricle. Retinas were carefully dissected from enucleated eyes, placed in pre-weighed Eppendorf tubes, dried in speed vacuum overnight and dry weights recorded. Evans blue was extracted by incubating each retina in 120 μl formamide for 18 hours at 70° C., centrifuged for 2 hours at 6000 rpm. Absorbance of 60 μl of extract was measured at 620 nm and background absorbance was determined at 740 nm. Net absorbance was calculated by subtracting the background 740 nm from that at 620 nm. Measurement of a standard curve of Evans blue in formamide was also done and Evans blue leakage expressed as μl/g/h was calculated as shown below: [EB(ng/ml)×120 (μl)×1000]/[dry weight retina (mg)×circulation time (h)×plasma EB(ng/ml)×100]

VEGF = VEGF content in aqueous humor, ET-1 induced ischemia; format: in vivo, rabbit; conditions: ET-1 treated rabbits; 0.5 mg (equivalent)/eye IVT
IL-6 = IL-6 content in aqueous humor (ELISA), ET-1 induced ischemia; format: in vivo, rabbit; conditions: ET-1 treated rabbits; 0.5 mg (equivalent)/eye IVT
Method: (§1) Aqueous humor samples were withdrawn from both anterior and posterior chamber fluids of each eye before ET-1 administration (T0), before the administration of Compound (1) or fluorocinolone acetonide (T2), and at the end of treatments (T6). The same volume of saline were reintroduced every time. The aqueous humor samples were immediately frozen at −80° C. until use.
(§2) Tumor necrosis factor (TNFα) and interleukin 6 (IL-6) were determined in aqueous humor with a commercial kit using an ELISA method (Amersham Pharmacia Biotech). The minimum detectable concentrations were 0.10 pg/ml for IL-6 and TNFα. The interassay coefficient of variation was 0.7% for all assays.

Brown Norway rats = experiment: Steroid-induced intraocular pressure (IOP) elevation in rats after intravitreal injection; conditions: for IOP increase: one week after injection, baseline 18 mm Hg
Source text: Male Brown Norway rats (250-275 g; Charles River laboratory) were acclimated for a week before IOP measurements. Baseline IOP measurements with Tonolab Tonometer (Tiolat Inc) were done in conscious rats (Pease, M. E., et al J. Glaucoma, 15:512-519, 2006) before intravitreal injection of test compounds. Then the rats were anesthetized with isoflurane inhalation and a drop of 0.5% tetracaine was topically applied on the eyes. Pupils were dilated with 1% topical cyclopentolate hydrochloride and 2.5% phenylephrine HCl to see the needle to aim the intravitreal injection of test compounds. […] For example, to compare to fluocinolone acetonide at both 25 and 50 μg/eye, compound (1) was dosed at 42.4 and 84.7 μg/eye, respectively. The des-nitro analog of compound (1) was dosed at 39.1 μg/eye (equivalent for 25 μg FC). Control animals received vehicle.
Five measurements were averaged for each time point. IOP measurements were taken at one and two weeks after intravitreal injection of test compounds.

[2] = tested on: isolated rabbit thoracic aorta preparations; experiment: Assay on vascular tone (vasorelaxation of methoxamine-precontracted aortic rings); conditions: rabbit aortic rings precontracted with methoxamine 3 μM
Method: The ability of the compounds of the invention to induce vasorelaxation in comparison to precursor compounds was tested in vitro in isolated rabbit thoracic aorta preparations (Wanstall J. C. et al., Br. J. Pharmacol., 134:463-472, 2001). Male New Zealand rabbits (1,8-2 Kg) were used. The animals were anaesthetized with sodium thiopental (50 mg/kg, iv), sacrificed by exsanguinations and then the thorax was opened and the aorta dissected. The aortas were placed immediately in Krebs-HEPES buffer (pH 7.4; composition mM: NaCl 130.0, Kcl 3.7, […] 14.9, KH2PO4 1.2, MgSO4.7H2O 1.2, Glucose 11.0, HEPES 10.0, CaCl2.2H2O 1.6) and cut into ring segments (4-5 mm in length). Each ring was placed in a 5 ml tissue bath filled with Krebs-HEPES buffer (37° C.) aerated with 95% O2 and 5% CO2 and was then attached to a force transducer (Grass FT03), connected to a BIOPAC MP150 System for measurement of the isometric tension^2. The preparations were allowed to equilibrate for 1 h at a resting tension of 2 g with changes of the buffer every 15 minutes and then stimulated by exposure to 90 mM KCl (3 times) with intervening washings. After equilibration, the rings were precontracted submaximally with methoxamine (3 μM) and, when the contraction reach a steady state a cumulative concentration-response curve to the test compounds was obtained. The time intervals between doses were based on the time needed to reach a full a steady state response.
Responses to test compounds were expressed as a percentage of residual contraction and plotted against concentration of test compound. EC50 values (where EC50 is the concentration producing 50% of the maximum relaxation to the test compound) were interpolated from these plots.

[3] = tested on: New Zealand White rabbits; experiment: Intraocular pressure in endothelin-1 (ET-1) induced ischemia
Method: Twenty adult male New Zealand Albino rabbits weighing 2-2.5 Kg were used for the experiments. The animals were divided in two groups for the specific treatment chosen. […] The rabbits were kept in individual cages, food and water was provided ad libitum. The animals were maintained on a 12-12 h light/dark cycle in a temperature controlled room (22°-23° C.).
Ischemia model of optic injury was obtained throughout by injection, twice a week, for 6 weeks, of endothelin-1 (ET-1) 250 nM, 500 μl of sterile saline, into the posterior vitreous body of both eyes, using a lachrymal cannula, under general anesthesia produced by tiletamine plus zolazepam (Zoletil 100, 0.05 mg/kg) plus xilazine (Xilor 2%, 0.05 ml/kg) i.m.
Fluocinolone acetonide (FC) (0.5 mg/eye in 100 μl of vehicle) or Compound (1) (0.5 mg equivalent/eye in 100 μl of vehicle) were instilled intravitreally (IVT) two weeks after the start of ET-1 treatment (T2), in one eyes, the same volume of vehicle was instilled in the other eye.
Intraocular pressure (TOP) was measured twice a using a Tono-Pen XL (Medtronic Solan. USA) as described by Maren's group (Exp. Eye Res. (1992) 55: 73-79; Exp. Eye Res. (1993) 57: 67-78) with a two-point standard pressure measurement.

[4] = tested on: New Zealand White rabbits; experiment: Electroretinogram (ERG) in ET-1 induced ischemia; conditions: after ET-1 treatment; 0.5 mg (equivalent)/eye IVT
Method: Twenty adult male New Zealand Albino rabbits weighing 2-2.5 Kg were used for the experiments. The animals were divided in two groups for the specific treatment chosen. The experimental procedures were conform to those of the Association for Research in Vision and Ophthalmology Resolution on the use of animals and in agreement with the Good Laboratory Practice for the use of animals and were conducted upon authorization of Italian regulation on protection of animals used for experimental and other scientific purpose (DM 116/1992) as well as with the European Union Regulations (OJ of ECL 358/1, Dec. 12, 1986). The rabbits were kept in individual cages, food and water was provided ad libitum. […]
The Electroretinogram (ERG) was performed in basal condition (T0), before the start of drug treatment (T2) and at the end of drug treatment (T6). […] The eyes were dilated by topical application of tropicamide (1%), adapted to darkness for at least 2 hours, and standard ERGs recorded in both eyes using corneal electrodes. […] The ERG signals were recorded using Retimax (CSO, Florence, Italy). The dark-adapted scotopic response (rod response) and scotopic flash response (photopic erg cone), were recorded. […] An average of three separate ERGs was determined for each eye. The amplitude (uV) of a- and b-waves were calculated for each step. […]

retinal tissue = experiment: Retina protection: morphological analysis, ET-1 induced ischemia; format: in vivo, rabbit; conditions: long term ET-1 treatment; 0.5 mg (equivalent)/eye IVT
Method: The eyes of each animal was enucleated, cornea and crystalline were removed and the eyes was paraformaldehyde-fixed. Then samples were dehydrated with increasing alcohol concentration (50°-75°-95°-100°). After 95° alcohol treatment, the eyes were divided into two parts following a longitudinal plain from cornea to insertion of optical nerve. Thus the samples were paraffin-embedded. Section 8 μm thick were stained with Haematoxylin-Eosin. Microscopical fields were registered by digitizing camera applied a light microscope with a 20× and 40× objective. On the digitized images was performed a morphological analysis of retinal tissue.

TNFα = TNFα content in aqueous humor (ELISA), ET-1 induced ischemia; format: in vivo, rabbit; conditions: ET-1 treated rabbits; 0.5 mg (equivalent)/eye IVT
Method: as §1, §2

SMILES: CC1(C)O[C@@H]2C[C@H]3[C@@H]4C[C@H](F)C5=CC(=O)C=C[C@]5(C)[C@@]4(F)[C@@H](O)C[C@]3(C)[C@]2(C(=O)CO)O1 [FC, Fluocinolone acetonide]
- Resistence Index (ophthalmic artery; After 2 weeks (before drug instillation, T2)): 0.45 ± 0.06
- Resistence Index (ophthalmic artery; After 6 weeks (end of drug treatment), 0.5 mg (equivalent)/eye IVT): 0.60 ± 0.04
- Resistence Index (ophthalmic artery; Basal): 0.45 ± 0.06
- inhibition of VEGF-induced leakage [1]: 86.1%
- VEGF content in aqueous humor (VEGF): 114.58 ± 5.61 pg/mL
- IL6 content in aqueous humor (IL-6): 16.82 ± 0.98 pg/mL
- IOP compared to compound (1) at 42.4 μg/eye (FIG. 4) (Brown Norway rats; 25 μg/eye intravitreal): increase in IOP
- IOP increase (Brown Norway rats; 25 μg/eye intravitreal): 4 mm Hg
- IOP increase (Brown Norway rats; 50 μg/eye intravitreal): 3 mm Hg
- IOP increase after two weeks (Brown Norway rats; 25 and 50 μg/eye intravitreal, two weeks after injection): maintained
- EC50 (concentration producing 50% of the maximum relaxation) [2]: no effect
- IOP ([3]; ET-1, 0.5 mg (equivalent)/eye IVT given at T2): 13.00 ± 2.83 mmHG
- IOP ([3]; I week, 0.5 mg (equivalent)/eye IVT, ET-1 ischemia): 15.50 ± 0.71 mmHG
- IOP ([3]; II week, 0.5 mg (equivalent)/eye IVT, ET-1 ischemia): 19.00 ± 0.00 mmHG
- IOP ([3]; III week, 0.5 mg (equivalent)/eye IVT, ET-1 ischemia): 19.00 ± 1.41 mmHG
- IOP ([3]; IV week, 0.5 mg (equivalent)/eye IVT, ET-1 ischemia): 20.80 ± 0.71 mmHG
- IOP ([3]; V week, 0.5 mg (equivalent)/eye IVT, ET-1 ischemia): 22.20 ± 0.00 mmHG
- IOP ([3]; VI week, 0.5 mg (equivalent)/eye IVT, ET-1 ischemia): 21.10 ± 0.00 mmHG
- IOP ([3]; basal, 0.5 mg (equivalent)/eye IVT given at T2): 13.50 ± 0.17 mmHG
- Photopic erg cone (amplitude) [4]: 136.34 ± 11.98 μV
- ET-1 induced morphological changes of retinal tissue (retinal tissue): not effective
- TNFα content in aqueous humor (TNFα): 20.76 ± 1.74 pg/mL
